This is an account of results in ChEMBL document CHEMBL5465560, “Selectivity Literature for EUbOPEN Chemogenomic Library” (2024).

Each structure is given as a SMILES string.

Assay [1] has as its target Serine/threonine-protein kinase SMG1 (Homo sapiens) (UniProt Q96Q15). Briefly: Selectivity interaction (Kinase panel (KiNativ target engagement assay in Jurkat cells)) EUB0001635a SMG1. Format: cell-based. Conditions: Selectivity number of off-targets 0.0, Selectivity number of targets 233.0, Source Knowledge https://www.sciencedirect.com/science/article/pii/S2451945619300674?via%3Dihub, at 1 µM.

In assay [2] the target is T1, Tyrosine-protein kinase Lyn (Homo sapiens, UniProt P07948). The experiment in a line: Selectivity interaction (Ambit KINOMEscan and KiNATiv profiling in Jurkat cells) EUB0000090b LYN. Format: cell-based. Conditions: at 1 µM.
T1 sequence (P07948 2-512 limits assumed): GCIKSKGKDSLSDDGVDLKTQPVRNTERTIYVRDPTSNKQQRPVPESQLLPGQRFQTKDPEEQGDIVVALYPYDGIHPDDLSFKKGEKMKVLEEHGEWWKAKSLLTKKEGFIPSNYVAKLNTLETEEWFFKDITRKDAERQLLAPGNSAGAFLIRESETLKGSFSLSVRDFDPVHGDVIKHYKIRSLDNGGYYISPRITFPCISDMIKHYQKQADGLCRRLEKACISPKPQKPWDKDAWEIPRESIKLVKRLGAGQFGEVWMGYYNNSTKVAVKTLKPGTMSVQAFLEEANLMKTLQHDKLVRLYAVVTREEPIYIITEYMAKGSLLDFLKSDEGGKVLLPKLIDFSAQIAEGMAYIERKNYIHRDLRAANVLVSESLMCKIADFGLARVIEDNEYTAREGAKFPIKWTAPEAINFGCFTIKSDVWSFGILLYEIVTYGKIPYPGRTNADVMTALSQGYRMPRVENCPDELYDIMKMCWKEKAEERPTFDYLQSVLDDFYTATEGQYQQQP
Assay [3] has as its target T1, Tyrosine-protein kinase Lyn. The conditions noted are these: at 10 µM.
Assay [4] addresses Ribosomal protein S6 kinase alpha-4 (Homo sapiens) (UniProt O75676). Conditions: at 10 µM.
For assay [5], the target named is T2, Histone-lysine N-methyltransferase SMYD3 (Homo sapiens) (UniProt Q9H7B4).
T2 sequence (whole entry): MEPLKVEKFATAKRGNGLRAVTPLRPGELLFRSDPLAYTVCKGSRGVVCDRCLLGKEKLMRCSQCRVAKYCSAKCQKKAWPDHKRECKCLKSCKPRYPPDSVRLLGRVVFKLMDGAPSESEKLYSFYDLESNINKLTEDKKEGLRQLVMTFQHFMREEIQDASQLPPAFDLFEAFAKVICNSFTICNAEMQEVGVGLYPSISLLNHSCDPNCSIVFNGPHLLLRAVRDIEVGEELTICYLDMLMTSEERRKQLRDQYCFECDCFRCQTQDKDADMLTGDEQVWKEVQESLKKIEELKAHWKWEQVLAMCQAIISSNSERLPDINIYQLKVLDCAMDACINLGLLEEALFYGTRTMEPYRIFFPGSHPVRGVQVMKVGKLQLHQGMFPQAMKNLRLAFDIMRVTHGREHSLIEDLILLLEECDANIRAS
The conditions noted are these: at 1 µM.

Assay [6] deals with Phosphatidylinositol 4-phosphate 3-kinase C2 domain-containing subunit beta (Homo sapiens) (UniProt O00750). Briefly: Selectivity interaction (KinomeScan (DiscoverX)) EUB0000655a PIK3C2B. Conditions: at 10 µM.
Phosphatidylinositol 4-phosphate 3-kinase C2 domain-containing subunit beta (Homo sapiens), sequence (O00750 whole entry, the tested form may be a part): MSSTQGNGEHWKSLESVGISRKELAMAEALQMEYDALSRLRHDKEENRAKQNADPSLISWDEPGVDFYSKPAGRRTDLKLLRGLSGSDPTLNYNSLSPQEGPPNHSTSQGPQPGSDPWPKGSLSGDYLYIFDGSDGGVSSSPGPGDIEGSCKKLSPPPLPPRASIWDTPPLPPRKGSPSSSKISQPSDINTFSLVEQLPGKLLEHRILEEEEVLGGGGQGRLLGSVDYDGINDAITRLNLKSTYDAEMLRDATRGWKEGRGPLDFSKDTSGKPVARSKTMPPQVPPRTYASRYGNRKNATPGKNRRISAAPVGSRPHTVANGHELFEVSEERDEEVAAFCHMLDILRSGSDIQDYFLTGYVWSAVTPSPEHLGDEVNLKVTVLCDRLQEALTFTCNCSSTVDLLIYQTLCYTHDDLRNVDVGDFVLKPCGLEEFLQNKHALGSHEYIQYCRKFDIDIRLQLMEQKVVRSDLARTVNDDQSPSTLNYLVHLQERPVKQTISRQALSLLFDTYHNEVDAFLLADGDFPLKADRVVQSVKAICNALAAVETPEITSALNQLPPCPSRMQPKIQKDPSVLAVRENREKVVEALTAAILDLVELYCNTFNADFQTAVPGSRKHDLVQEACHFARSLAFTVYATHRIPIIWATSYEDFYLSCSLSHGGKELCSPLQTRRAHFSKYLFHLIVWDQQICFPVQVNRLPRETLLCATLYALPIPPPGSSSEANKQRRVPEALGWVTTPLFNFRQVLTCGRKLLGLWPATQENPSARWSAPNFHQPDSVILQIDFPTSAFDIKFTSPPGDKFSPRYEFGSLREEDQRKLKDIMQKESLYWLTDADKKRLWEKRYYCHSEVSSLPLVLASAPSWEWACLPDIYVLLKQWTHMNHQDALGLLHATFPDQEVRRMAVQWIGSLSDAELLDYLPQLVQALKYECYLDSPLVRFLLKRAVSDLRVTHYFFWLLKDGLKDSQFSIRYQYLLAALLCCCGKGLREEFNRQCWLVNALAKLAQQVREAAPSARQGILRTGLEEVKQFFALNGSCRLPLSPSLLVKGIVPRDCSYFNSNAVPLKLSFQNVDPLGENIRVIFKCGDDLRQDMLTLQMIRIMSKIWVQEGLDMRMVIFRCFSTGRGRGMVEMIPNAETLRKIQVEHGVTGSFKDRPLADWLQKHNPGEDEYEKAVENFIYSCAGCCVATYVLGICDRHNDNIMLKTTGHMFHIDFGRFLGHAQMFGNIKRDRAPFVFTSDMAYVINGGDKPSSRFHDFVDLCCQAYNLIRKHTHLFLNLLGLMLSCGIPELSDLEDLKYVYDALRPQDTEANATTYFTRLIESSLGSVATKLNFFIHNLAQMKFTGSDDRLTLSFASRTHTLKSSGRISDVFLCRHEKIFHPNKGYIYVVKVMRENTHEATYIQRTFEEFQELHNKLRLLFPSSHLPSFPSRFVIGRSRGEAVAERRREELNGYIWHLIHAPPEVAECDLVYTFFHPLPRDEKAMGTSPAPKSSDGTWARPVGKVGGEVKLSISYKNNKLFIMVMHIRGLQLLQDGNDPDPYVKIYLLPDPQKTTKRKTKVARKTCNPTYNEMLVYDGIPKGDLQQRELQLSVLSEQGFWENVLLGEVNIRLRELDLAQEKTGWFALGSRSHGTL
The target in assay [7] is Mitogen-activated protein kinase 7 (Homo sapiens) (UniProt Q13164). Briefly: Selectivity interaction (KinomeScan (DiscoverX)) EUB0001079a MAPK7. Conditions: at 1 µM.
Mitogen-activated protein kinase 7 (Homo sapiens), sequence (Q13164 2-816 limits assumed): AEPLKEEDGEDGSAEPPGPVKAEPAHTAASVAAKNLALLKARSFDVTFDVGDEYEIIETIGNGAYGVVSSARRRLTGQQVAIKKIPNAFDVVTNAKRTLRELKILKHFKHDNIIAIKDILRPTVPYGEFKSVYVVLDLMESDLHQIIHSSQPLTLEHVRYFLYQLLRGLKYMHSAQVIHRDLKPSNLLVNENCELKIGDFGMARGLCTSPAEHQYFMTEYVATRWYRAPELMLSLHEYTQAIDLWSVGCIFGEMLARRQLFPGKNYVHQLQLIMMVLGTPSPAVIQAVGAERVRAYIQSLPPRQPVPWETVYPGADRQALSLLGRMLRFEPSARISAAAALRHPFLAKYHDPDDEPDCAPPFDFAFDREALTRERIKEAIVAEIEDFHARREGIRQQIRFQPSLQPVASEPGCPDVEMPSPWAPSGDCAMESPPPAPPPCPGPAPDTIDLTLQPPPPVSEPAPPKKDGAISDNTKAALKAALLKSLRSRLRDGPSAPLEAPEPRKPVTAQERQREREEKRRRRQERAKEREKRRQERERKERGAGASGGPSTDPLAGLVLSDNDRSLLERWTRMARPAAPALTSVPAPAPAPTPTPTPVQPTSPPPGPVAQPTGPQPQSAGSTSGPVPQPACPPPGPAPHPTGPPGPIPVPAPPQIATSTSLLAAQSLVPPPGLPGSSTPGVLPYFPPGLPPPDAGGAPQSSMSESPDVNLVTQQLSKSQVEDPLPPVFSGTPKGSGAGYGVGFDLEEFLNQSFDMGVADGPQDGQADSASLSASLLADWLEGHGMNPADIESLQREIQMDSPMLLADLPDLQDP
Assay [8] has as its target Cannabinoid receptor 2 (Homo sapiens) (UniProt P34972). The experiment in a line: Selectivity interaction (Panel of kinases, GPCRs, ion channels and transporters (enzymatic assay)) EUB0000266bCl CNR2.
In assay [9] the target is Mitogen-activated protein kinase kinase kinase 10 (Homo sapiens) (UniProt Q02779). Briefly: Selectivity interaction (KinomeScan (DiscoverX)) EUB0001619a MAP3K10. The conditions noted are these: at 1 µM.
Mitogen-activated protein kinase kinase kinase 10 (Homo sapiens), sequence (Q02779 whole entry, looked up): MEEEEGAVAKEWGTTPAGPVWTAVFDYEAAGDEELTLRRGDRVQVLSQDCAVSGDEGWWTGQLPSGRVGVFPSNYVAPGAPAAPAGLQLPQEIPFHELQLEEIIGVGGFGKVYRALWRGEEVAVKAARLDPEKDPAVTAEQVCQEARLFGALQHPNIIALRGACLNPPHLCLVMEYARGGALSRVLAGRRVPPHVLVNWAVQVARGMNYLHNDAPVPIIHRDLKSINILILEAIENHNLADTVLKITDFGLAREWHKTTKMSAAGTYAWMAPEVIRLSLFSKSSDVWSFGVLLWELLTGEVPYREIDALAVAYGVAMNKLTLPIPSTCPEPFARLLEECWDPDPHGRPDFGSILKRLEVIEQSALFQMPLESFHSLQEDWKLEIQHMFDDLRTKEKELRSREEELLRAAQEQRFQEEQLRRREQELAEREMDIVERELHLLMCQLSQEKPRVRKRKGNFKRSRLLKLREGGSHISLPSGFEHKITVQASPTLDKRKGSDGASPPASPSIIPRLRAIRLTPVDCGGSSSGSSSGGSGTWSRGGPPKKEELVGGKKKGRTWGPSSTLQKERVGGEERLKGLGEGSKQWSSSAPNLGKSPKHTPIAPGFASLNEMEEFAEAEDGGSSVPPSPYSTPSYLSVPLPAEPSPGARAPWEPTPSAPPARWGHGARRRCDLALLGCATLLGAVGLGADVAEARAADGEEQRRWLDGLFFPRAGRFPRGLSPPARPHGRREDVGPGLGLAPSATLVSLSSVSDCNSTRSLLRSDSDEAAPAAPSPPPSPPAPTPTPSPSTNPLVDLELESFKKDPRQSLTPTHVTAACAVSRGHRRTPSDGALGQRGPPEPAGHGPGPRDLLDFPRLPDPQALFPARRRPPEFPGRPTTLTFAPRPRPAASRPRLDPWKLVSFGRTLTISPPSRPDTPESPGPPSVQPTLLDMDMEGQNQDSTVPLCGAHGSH
The target of assay [10] is Calcium/calmodulin-dependent protein kinase type 1D (Homo sapiens) (UniProt Q8IU85). Briefly: Selectivity interaction (ActivX KiNativ screen (kinase selectivity in THP-1 cell lysates)) EUB0000639a CAMK1D. Format: subcellular. The conditions noted are these: lysate, at 5 µM.
Calcium/calmodulin-dependent protein kinase type 1D (Homo sapiens), sequence (Q8IU85 whole entry, looked up): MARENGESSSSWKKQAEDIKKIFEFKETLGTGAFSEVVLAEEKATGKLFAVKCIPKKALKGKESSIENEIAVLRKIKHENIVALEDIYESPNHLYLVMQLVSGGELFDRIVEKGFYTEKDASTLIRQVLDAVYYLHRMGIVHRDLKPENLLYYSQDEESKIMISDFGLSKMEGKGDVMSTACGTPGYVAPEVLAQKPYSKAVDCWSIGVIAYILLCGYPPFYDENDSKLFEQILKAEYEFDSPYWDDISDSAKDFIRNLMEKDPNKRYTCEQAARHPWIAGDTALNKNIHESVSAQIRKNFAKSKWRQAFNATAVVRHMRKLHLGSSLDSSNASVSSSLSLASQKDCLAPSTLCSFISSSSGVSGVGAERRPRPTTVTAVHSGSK
Assay [11] addresses 5'-AMP-activated protein kinase catalytic subunit alpha-1 (Homo sapiens, UniProt Q13131). Briefly: Selectivity interaction (ActivX KiNativ screen (kinase selectivity in THP-1 cell lysates)) EUB0000639a PRKAA1. The conditions noted are these: lysate, at 0.01 µM. Format: subcellular.
Assay [12] has as its target T3, Mitogen-activated protein kinase kinase kinase kinase 2 (Homo sapiens) (UniProt Q12851).
T3 sequence (whole entry): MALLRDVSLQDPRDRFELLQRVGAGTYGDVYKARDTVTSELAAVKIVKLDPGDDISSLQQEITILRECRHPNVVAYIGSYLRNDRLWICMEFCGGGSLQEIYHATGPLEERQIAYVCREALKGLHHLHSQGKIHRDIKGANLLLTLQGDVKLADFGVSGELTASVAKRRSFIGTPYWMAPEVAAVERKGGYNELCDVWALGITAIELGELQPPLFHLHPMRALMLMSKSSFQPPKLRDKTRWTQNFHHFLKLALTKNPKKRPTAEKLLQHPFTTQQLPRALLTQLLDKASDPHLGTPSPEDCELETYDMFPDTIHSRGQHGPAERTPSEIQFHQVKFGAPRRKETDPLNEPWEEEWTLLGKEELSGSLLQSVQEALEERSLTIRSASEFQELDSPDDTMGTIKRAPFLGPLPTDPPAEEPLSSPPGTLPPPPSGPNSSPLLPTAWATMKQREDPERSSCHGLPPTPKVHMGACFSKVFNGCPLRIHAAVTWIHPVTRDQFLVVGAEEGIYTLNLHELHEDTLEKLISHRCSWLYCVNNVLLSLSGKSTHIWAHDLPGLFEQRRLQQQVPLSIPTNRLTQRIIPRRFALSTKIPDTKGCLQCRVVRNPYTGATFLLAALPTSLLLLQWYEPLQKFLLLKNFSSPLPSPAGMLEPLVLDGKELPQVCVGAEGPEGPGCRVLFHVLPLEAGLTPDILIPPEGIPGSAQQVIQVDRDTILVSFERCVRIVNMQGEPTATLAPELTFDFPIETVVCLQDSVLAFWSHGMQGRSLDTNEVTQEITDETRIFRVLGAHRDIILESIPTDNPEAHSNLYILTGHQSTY
Briefly: Selectivity interaction (KinomeScan (DiscoverX)) EUB0001049a MAP4K2. Conditions: at 1 µM.

Assay [13] concerns the target T4, Protein kinase C iota type (Homo sapiens) (UniProt P41743).
T4 sequence (whole entry): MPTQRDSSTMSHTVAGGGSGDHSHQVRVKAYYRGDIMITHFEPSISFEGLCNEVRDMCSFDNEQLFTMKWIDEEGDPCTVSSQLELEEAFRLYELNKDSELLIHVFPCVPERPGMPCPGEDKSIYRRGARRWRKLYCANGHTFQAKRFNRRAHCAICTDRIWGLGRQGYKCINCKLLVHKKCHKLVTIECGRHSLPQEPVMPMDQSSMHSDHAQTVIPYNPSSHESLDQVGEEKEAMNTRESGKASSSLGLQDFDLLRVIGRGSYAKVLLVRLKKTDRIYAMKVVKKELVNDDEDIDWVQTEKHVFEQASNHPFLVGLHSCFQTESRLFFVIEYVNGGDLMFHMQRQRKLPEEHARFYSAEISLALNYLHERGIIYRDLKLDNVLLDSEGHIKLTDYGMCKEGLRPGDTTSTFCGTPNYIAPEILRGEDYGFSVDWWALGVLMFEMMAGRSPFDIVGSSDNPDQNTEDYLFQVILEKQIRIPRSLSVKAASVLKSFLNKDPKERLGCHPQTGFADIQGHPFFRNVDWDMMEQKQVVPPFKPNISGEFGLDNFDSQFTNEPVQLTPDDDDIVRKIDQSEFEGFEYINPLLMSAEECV
Briefly: Selectivity interaction (ProQinase) EUB0000171b PRKCI.

Assay [14] has as its target Serine/threonine-protein kinase MRCK alpha (Homo sapiens) (UniProt Q5VT25). Conditions: at 10 µM.

Cannabinoid receptor 2 (Homo sapiens), sequence (P34972 whole entry): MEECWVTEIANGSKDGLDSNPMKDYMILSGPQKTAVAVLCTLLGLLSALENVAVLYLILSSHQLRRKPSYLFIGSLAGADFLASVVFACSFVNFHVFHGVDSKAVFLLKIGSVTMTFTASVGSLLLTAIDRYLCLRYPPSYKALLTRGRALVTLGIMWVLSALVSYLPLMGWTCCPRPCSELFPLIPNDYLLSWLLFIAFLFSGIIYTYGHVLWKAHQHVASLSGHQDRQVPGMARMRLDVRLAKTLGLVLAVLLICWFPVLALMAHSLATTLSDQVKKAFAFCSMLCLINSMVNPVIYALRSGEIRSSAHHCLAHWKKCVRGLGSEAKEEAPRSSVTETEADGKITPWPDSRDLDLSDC

Turning to `C=CC(=O)Nc1ccc(C(=O)Nc2[nH]nc3c2CN(C(=O)N[C@H](CN(C)C)c2ccccc2)C3(C)C)cc1`, in assay [1], the % of engagement was -6.6%.

As for `CN(C)C/C=C/C(=O)Nc1ccc(C(=O)N2CCCC(Nc3ncc(Cl)c(-c4c[nH]c5ccccc45)n3)C2)cc1` (stereo not given), the % of control in assay [2] came to 100%.

Take `Cc1cc([C@@H](C)Nc2ccccc2C(=O)O)c2nc(N3CCOCC3)cc(=O)n2c1` [AZD-6482]: the % of control worked out at 99% in assay [3] and 94% in assay [4].

Regarding `CNCCN1CCC(c2cc(CN(C)C(=O)c3cccc(Oc4ccccc4)c3)ccn2)CC1`, the % activity in assay [5] was above 85%.

For `CN(C)CCOc1ccc(-c2nc(-c3ccncc3)c(-c3ccc4c(c3)CC/C4=N\O)[nH]2)cc1`, the % of control in assay [6] was 64%.

Regarding `Nc1cnc(N2CCc3cc(S(=O)(=O)Nc4c(F)cc(Cl)cc4F)cc(N4CCCC4=O)c32)nc1` [TP-020n], in assay [7], the % of control stood at 100%.

Consider `CCn1c(-c2nc3cc(C(=O)N4CCCC(N)C4)ccc3n2C)cc2ccccc21` (stereo not given), for which the pXC50 in assay [8] is below 4 M.

As to `N#Cc1cccc(-c2c[nH]c3ncnc(N4CCOCC4)c23)c1`, the % of control in assay [9] amounted to 100%.

`CC[C@@H]1[C@H](F)C(=O)N[C@@H]1COc1nccc2cc(C(N)=O)c(OC)cc12` [ZIMLOVISERTIB]: the % of inhibition in assay [10] came out at 21.3%; in assay [11], 7.8%.

In turn, `COc1cc(Nc2nc(C)cc(-c3cnn4nc(OC)ccc34)n2)cc(C(F)(F)F)c1` returned a % of control in assay [12] of 99%.

For `C=CC(=O)Nc1cccc(C(=O)Nc2ccc(Nc3cc(-c4[nH]c(SC)nc4C)ccn3)cc2)c1`, the % of control in [13] (at 1 µM) turned out to be 80%; in assay [13] (at 5 µM), 52%.

In assay [14], `COCC(=O)NC/C=C/c1ccc2ncnc(Nc3ccc(Oc4ccc(C)nc4)c(C)c3)c2c1` [CP-724714] came in with a % of control of 100%.
